# Assay: Phase 1 single-ascending dose (Part 1): safety and tolerability in healthy adults
# Assay type: in vivo, human
# Description: This ongoing trial is a Phase 1 randomized, double-blind, placebo-controlled study in male and female healthy adult volunteers aged 18-55 years. All volunteers provided written, informed consent.
# All volunteers were followed up for 4 weeks and safety and tolerability were continuously assessed throughout the study. All adverse events (AEs) were recorded from the time of consent to the completion visit and were graded using the DAIDS toxicity grading scale. Volunteers also underwent physical examinations, electrocardiograms, vital sign checks and clinical laboratory parameters (chemistry, haematology, urinalysis).
# [1] = 1.8 mg and 1.25 mg fasted pooled
structure (smiles),measurement,setting,value
CCCCOc1nc(N)c2[nH]cc(Cc3ccc(CN4CCCC4)cc3)c2n1 [Compound 4],time within which fever and flu-like symptoms resolved,1.25 mg and 1.8 mg fasted,24 to 48 h
same,time within which low lymphocyte count resolved,1.25 mg fasted and 1.8 mg,≤ 72 h
same,subjects with treatment-related headache overall,[1],5 subjects
same,subjects with treatment-related pyrexia overall,[1],5 subjects
same,subjects with treatment-related pyrexia grade 1,"Part 1, all single doses",3 subjects
same,subjects with treatment-related pyrexia grade 2,"Part 1, all single doses",2 subjects
same,"deaths, other SAEs, or AEs of at least grade 3",Part 1 and Part 2,"no deaths, other SAEs, or AEs of at least grade 3 occurred"
same,serious AEs or dose-limiting toxicities,all tested single doses,no serious AEs or dose-limiting toxicities
same,Any AE (treatment-emergent),single dose 0.2 mg fasted,4 (67) n (%)
same,Back pain Grade 1 (treatment-emergent AE),single dose 0.2 mg fasted,0 n (%)
same,Chills Grade 1 (treatment-emergent AE),single dose 0.2 mg fasted,0 n (%)
same,Contact dermatitis Grade 1 (treatment-emergent AE),single dose 0.2 mg fasted,2 (33) n (%)
same,Dizziness Grade 1 (treatment-emergent AE),single dose 0.2 mg fasted,1 (17) n (%)
same,ECG actual value: Heart rate (bpm) Low,single dose 0.2 mg fasted,1 (16.7%) n (%)
same,ECG actual value: QRS (ms) High,single dose 0.2 mg fasted,0 n (%)
same,ECG actual value: QTcB (ms) ]450; 480],single dose 0.2 mg fasted,0 n (%)
same,ECG actual value: QTcF (ms) ]450; 480],single dose 0.2 mg fasted,0 n (%)
same,ECG change from reference: QTcB (ms) [30; 60],single dose 0.2 mg fasted,0 n (%)
same,ECG change from reference: QTcF (ms) [30; 60],single dose 0.2 mg fasted,0 n (%)
same,Headache Grade 1 (treatment-emergent AE),single dose 0.2 mg fasted,1 (17) n (%)
same,Headache Grade 2 (treatment-emergent AE),single dose 0.2 mg fasted,0 n (%)
same,Hypertension Grade 1 (treatment-emergent AE),single dose 0.2 mg fasted,0 n (%)
same,Hypertension Grade 2 (treatment-emergent AE),single dose 0.2 mg fasted,0 n (%)
same,Myalgia Grade 1 (treatment-emergent AE),single dose 0.2 mg fasted,0 n (%)
same,Oropharyngeal pain Grade 1 (treatment-emergent AE),single dose 0.2 mg fasted,0 n (%)
same,Pyrexia Grade 1 (treatment-emergent AE),single dose 0.2 mg fasted,0 n (%)
same,Pyrexia Grade 2 (treatment-emergent AE),single dose 0.2 mg fasted,0 n (%)
same,URTI Grade 1 (treatment-emergent AE),single dose 0.2 mg fasted,0 n (%)
same,"lab toxicity: Amylase (U/L), upwards, Grade 1",single dose 0.2 mg fasted,0 n (%)
same,"lab toxicity: Amylase (U/L), upwards, Grade 2",single dose 0.2 mg fasted,1 (16.7%) n (%)
same,"lab toxicity: Cholesterol (mmol/L), upwards, Grade 1",single dose 0.2 mg fasted,0 n (%)
same,"lab toxicity: Cholesterol (mmol/L), upwards, Grade 2",single dose 0.2 mg fasted,1 (16.7%) n (%)
same,"lab toxicity: Creatine kinase (U/L), upwards, Grade 1",single dose 0.2 mg fasted,3 (50.0%) n (%)
same,"lab toxicity: Creatine kinase (U/L), upwards, Grade 2",single dose 0.2 mg fasted,0 n (%)
same,"lab toxicity: Creatine kinase (U/L), upwards, Grade 4",single dose 0.2 mg fasted,0 n (%)
same,"lab toxicity: Glucose (mmol/L), upwards, Grade 1",single dose 0.2 mg fasted,1 (16.7%) n (%)
same,"lab toxicity: Glucose (mmol/L), upwards, Grade 2",single dose 0.2 mg fasted,0 n (%)
same,"lab toxicity: LDL cholesterol (mmol/L, calculated), upwards, Grade 1",single dose 0.2 mg fasted,1 (16.7%) n (%)
same,"lab toxicity: LDL cholesterol (mmol/L, calculated), upwards, Grade 2",single dose 0.2 mg fasted,1 (16.7%) n (%)
same,"lab toxicity: LDL cholesterol (mmol/L, calculated), upwards, Grade 3",single dose 0.2 mg fasted,0 n (%)
same,"lab toxicity: Lymphocytes (giga/L), downwards, Grade 2",single dose 0.2 mg fasted,0 n (%)
same,"lab toxicity: Lymphocytes (giga/L), downwards, Grade 4",single dose 0.2 mg fasted,0 n (%)
same,"lab toxicity: Neutrophils, segmented (giga/L), downwards, Grade 1",single dose 0.2 mg fasted,0 n (%)
same,"lab toxicity: Neutrophils, segmented (giga/L), downwards, Grade 2",single dose 0.2 mg fasted,0 n (%)
same,"lab toxicity: Platelets (giga/L), downwards, Grade 1",single dose 0.2 mg fasted,0 n (%)
same,"lab toxicity: Sodium (mmol/L), upwards, Grade 1",single dose 0.2 mg fasted,0 n (%)
same,"lab toxicity: Sodium (mmol/L), upwards, Grade 2",single dose 0.2 mg fasted,0 n (%)
same,"lab toxicity: Triglycerides (mmol/L), upwards, Grade 1",single dose 0.2 mg fasted,1 (16.7%) n (%)
same,"lab toxicity: Triglycerides (mmol/L), upwards, Grade 2",single dose 0.2 mg fasted,2 (33.3%) n (%)
same,"lab toxicity: Triglycerides (mmol/L), upwards, Grade 3",single dose 0.2 mg fasted,0 n (%)
same,"lab toxicity: Urate (μmol/L), upwards, Grade 1",single dose 0.2 mg fasted,2 (33.3%) n (%)
same,subjects with at least one AE for which any study drug or study was permanently stopped,single dose 0.2 mg fasted,0 n (%)
same,subjects with at least one AE for which any study drug or study was temporarily stopped,single dose 0.2 mg fasted,0 n (%)
same,subjects with at least one AE possibly related to any study drug,single dose 0.2 mg fasted,0 n (%)
same,"subjects with at least one AE possibly, probably or very likely related to any study drug",single dose 0.2 mg fasted,0 n (%)
same,subjects with at least one AE probably related to any study drug,single dose 0.2 mg fasted,0 n (%)
same,subjects with at least one AE very likely related to any study drug,single dose 0.2 mg fasted,0 n (%)
same,subjects with at least one SAE,single dose 0.2 mg fasted,0 n (%)
same,subjects with at least one fatal AE,single dose 0.2 mg fasted,0 n (%)
same,subjects with at least one grade 1 AE,single dose 0.2 mg fasted,4 (66.7%) n (%)
same,subjects with at least one grade 2 AE,single dose 0.2 mg fasted,0 n (%)
same,subjects with at least one grade 3 or 4 AE,single dose 0.2 mg fasted,0 n (%)
same,subjects with low hematocrit levels (non-graded),single dose 0.2 mg fasted,5 (83.3%) n (%)
same,treatment-related AE: Any AE,single dose 0.2 mg fasted,0 n (%)
same,treatment-related AE: Chills,single dose 0.2 mg fasted,0 n (%)
same,treatment-related AE: Dizziness,single dose 0.2 mg fasted,0 n (%)
same,treatment-related AE: General disorders and administration site conditions,single dose 0.2 mg fasted,0 n (%)
same,treatment-related AE: Headache,single dose 0.2 mg fasted,0 n (%)
same,treatment-related AE: Hypertension,single dose 0.2 mg fasted,0 n (%)
same,treatment-related AE: Myalgia,single dose 0.2 mg fasted,0 n (%)
same,treatment-related AE: Nervous system disorders,single dose 0.2 mg fasted,0 n (%)
same,treatment-related AE: Oropharyngeal pain,single dose 0.2 mg fasted,0 n (%)
same,treatment-related AE: Pyrexia,single dose 0.2 mg fasted,0 n (%)
same,"treatment-related AE: Respiratory, thoracic and mediastinal disorders",single dose 0.2 mg fasted,0 n (%)
same,treatment-related AE: Vascular disorder,single dose 0.2 mg fasted,0 n (%)
same,vital signs: Respiratory rate (brpm) Grade 1,single dose 0.2 mg fasted,3 (50.0%) n (%)
same,vital signs: Respiratory rate (brpm) Grade 2,single dose 0.2 mg fasted,0 n (%)
same,vital signs: SaO2 (%) 90% to <95%,single dose 0.2 mg fasted,1 (16.7%) n (%)
same,vital signs: SaO2 (%) 95% to <98%,single dose 0.2 mg fasted,4 (66.7%) n (%)
same,vital signs: Standing DBP (mmHg) Grade 1,single dose 0.2 mg fasted,2 (33.3%) n (%)
same,vital signs: Standing DBP (mmHg) Grade 2,single dose 0.2 mg fasted,0 n (%)
same,vital signs: Standing DBP (mmHg) Grade 3,single dose 0.2 mg fasted,0 n (%)
same,vital signs: Standing DBP (mmHg) Low,single dose 0.2 mg fasted,0 n (%)
same,vital signs: Standing SBP (mmHg) Grade 1,single dose 0.2 mg fasted,3 (50.0%) n (%)
same,vital signs: Standing SBP (mmHg) Low,single dose 0.2 mg fasted,0 n (%)
same,vital signs: Standing pulse (bpm) High,single dose 0.2 mg fasted,3 (50.0%) n (%)
same,vital signs: Standing pulse (bpm) Low,single dose 0.2 mg fasted,0 n (%)
same,vital signs: Supine DBP (mmHg) Grade 1,single dose 0.2 mg fasted,0 n (%)
same,vital signs: Supine DBP (mmHg) Low,single dose 0.2 mg fasted,0 n (%)
same,vital signs: Supine SBP (mmHg) Grade 1,single dose 0.2 mg fasted,0 n (%)
same,vital signs: Supine SBP (mmHg) Grade 2,single dose 0.2 mg fasted,0 n (%)
same,vital signs: Supine SBP (mmHg) Low,single dose 0.2 mg fasted,1 (16.7%) n (%)
same,vital signs: Supine pulse (bpm) Low,single dose 0.2 mg fasted,2 (33.3%) n (%)
same,↑ AST Grade 3 (laboratory abnormality),single dose 0.2 mg fasted,0 n (%)
same,↑ Amylase Grade 2 (laboratory abnormality),single dose 0.2 mg fasted,1 (17) n (%)
same,↑ Cholesterol Grade 2 (laboratory abnormality),single dose 0.2 mg fasted,1 (17) n (%)
same,↑ Creatine kinase Grade 2 (laboratory abnormality),single dose 0.2 mg fasted,0 n (%)
same,↑ Creatine kinase Grade 4 (laboratory abnormality),single dose 0.2 mg fasted,0 n (%)
same,↑ Glucose Grade 2 (laboratory abnormality),single dose 0.2 mg fasted,0 n (%)
same,↑ LDL cholesterol Grade 2 (laboratory abnormality),single dose 0.2 mg fasted,1 (17) n (%)
same,↑ LDL cholesterol Grade 3 (laboratory abnormality),single dose 0.2 mg fasted,0 n (%)
same,↑ Lipase Grade 2 (laboratory abnormality),single dose 0.2 mg fasted,0 n (%)
same,↑ Pancreatic amylase Grade 2 (laboratory abnormality),single dose 0.2 mg fasted,0 n (%)
same,↑ Potassium Grade 2 (laboratory abnormality),single dose 0.2 mg fasted,0 n (%)
same,↑ Sodium Grade 2 (laboratory abnormality),single dose 0.2 mg fasted,0 n (%)
same,↑ Triglycerides Grade 2 (laboratory abnormality),single dose 0.2 mg fasted,2 (33) n (%)
same,↑ Triglycerides Grade 3 (laboratory abnormality),single dose 0.2 mg fasted,0 n (%)
same,↓ Bicarbonate Grade 2 (laboratory abnormality),single dose 0.2 mg fasted,1 (17) n (%)
same,↓ GFR Grade 2 (laboratory abnormality),single dose 0.2 mg fasted,0 n (%)
same,↓ Lymphocytes Grade 2 (laboratory abnormality),single dose 0.2 mg fasted,0 n (%)
same,↓ Lymphocytes Grade 4 (laboratory abnormality),single dose 0.2 mg fasted,0 n (%)
same,↓ Neutrophils Grade 2 (laboratory abnormality),single dose 0.2 mg fasted,0 n (%)
same,↓ Phosphate Grade 2 (laboratory abnormality),single dose 0.2 mg fasted,0 n (%)
same,Any AE (treatment-emergent),single dose 0.6 mg fasted,3 (50) n (%)
same,Back pain Grade 1 (treatment-emergent AE),single dose 0.6 mg fasted,0 n (%)
same,Chills Grade 1 (treatment-emergent AE),single dose 0.6 mg fasted,0 n (%)
same,Contact dermatitis Grade 1 (treatment-emergent AE),single dose 0.6 mg fasted,0 n (%)
same,Dizziness Grade 1 (treatment-emergent AE),single dose 0.6 mg fasted,0 n (%)
same,ECG actual value: Heart rate (bpm) Low,single dose 0.6 mg fasted,0 n (%)
same,ECG actual value: QRS (ms) High,single dose 0.6 mg fasted,0 n (%)
same,ECG actual value: QTcB (ms) ]450; 480],single dose 0.6 mg fasted,0 n (%)
same,ECG actual value: QTcF (ms) ]450; 480],single dose 0.6 mg fasted,0 n (%)
same,ECG change from reference: QTcB (ms) [30; 60],single dose 0.6 mg fasted,3 (50.0%) n (%)
same,ECG change from reference: QTcF (ms) [30; 60],single dose 0.6 mg fasted,0 n (%)
same,Headache Grade 1 (treatment-emergent AE),single dose 0.6 mg fasted,0 n (%)
same,Headache Grade 2 (treatment-emergent AE),single dose 0.6 mg fasted,0 n (%)
same,Hypertension Grade 1 (treatment-emergent AE),single dose 0.6 mg fasted,0 n (%)
same,Hypertension Grade 2 (treatment-emergent AE),single dose 0.6 mg fasted,0 n (%)
same,Myalgia Grade 1 (treatment-emergent AE),single dose 0.6 mg fasted,0 n (%)
same,Oropharyngeal pain Grade 1 (treatment-emergent AE),single dose 0.6 mg fasted,1 (17) n (%)
same,Pyrexia Grade 1 (treatment-emergent AE),single dose 0.6 mg fasted,0 n (%)
same,Pyrexia Grade 2 (treatment-emergent AE),single dose 0.6 mg fasted,0 n (%)
same,URTI Grade 1 (treatment-emergent AE),single dose 0.6 mg fasted,0 n (%)
same,"lab toxicity: Amylase (U/L), upwards, Grade 1",single dose 0.6 mg fasted,0 n (%)
same,"lab toxicity: Amylase (U/L), upwards, Grade 2",single dose 0.6 mg fasted,0 n (%)
same,"lab toxicity: Cholesterol (mmol/L), upwards, Grade 1",single dose 0.6 mg fasted,2 (33.3%) n (%)

# — patent US12263172B2, “Toll-like receptor agonists for use in the treatment of hepatitis b” (priority 2019, dated 2025)
